Laboratory results published in article PMC4434464 (ACS Medicinal Chemistry Letters, 2015).
Values joined by “and” are separate entries in the source; they are usually repeats but may differ in a detail not shown here. Identical values can stand only once. “Also recorded” adds a separate entry of the source.

Legend:
[1] = liver microsome clearance, human; type: in vitro ADME; conditions: human liver microsomes
[2] = liver microsome clearance, rat; type: in vitro ADME; conditions: rat liver microsomes
[3] = liver microsome clearance, mouse; type: in vitro ADME; conditions: mouse liver microsomes
[4] = plasma protein binding, equilibrium dialysis, human; type: in vitro ADME
[5] = plasma protein binding, equilibrium dialysis, rat; type: in vitro ADME
[6] = plasma protein binding, equilibrium dialysis, mouse; type: in vitro ADME
WSU-DLCL2 cells [7] = assay: predicted efficacious plasma exposure; conditions: human; plasma protein binding corrected LCC
[8] = single dose oral PK in SCID mice; type: in vivo
[9] = 7-day BID PK study, plasma exposure and tolerability; type: in vivo, mouse
[10] = tested on: H3K27 methylation in bone marrow; assay: 7-day BID PD, H3K27 methylation in bone marrow; type: in vivo, mouse; conditions: 500 mg/kg BID, end of day 7
[11] = rat oral PK of D-tartrate salt; type: in vivo; conditions: for time above LCC: p.o., D-tartrate salt; for AUC(0-inf) / Cmax / Tmax: plasma, po
[12] = tested on: subcutaneous EZH2 mutant KARPAS-422 human DLBCL xenografts; assay: KARPAS-422 xenograft antitumor activity; type: in vivo, SCID mice; conditions: 250 and 500 mg/kg BID orally, 21 days
[13] = tested on: H3K27 methyl mark in tumor tissue; assay: PD in KARPAS-422 tumor samples, H3K27 methyl mark; type: in vivo, SCID mice; conditions: day 7, 250 and 500 mg/kg, over the 12 h time-course
[14] = plasma exposure in the KARPAS-422 xenograft study; type: in vivo, SCID mice; conditions: 250 mg/kg BID, D-tartrate salt, day 7
WSU-DLCL2 cells [15] = assay: 11-day proliferation assay, LCC; conditions: n = 4
[16] = tested on: H3K27me3 in WSU-DLCL2 cells; assay: ELISA of cellular H3K27me3 methyl mark reduction; conditions: read-out: ELISA H3K27me3 IC50; WSU-DLCL2 (Y641F mutant-bearing) cells; n = 20

CCN(c1cc(C#CCN2CCOCC2)cc(C(=O)NCc2c(C)cc(C)[nH]c2=O)c1C)[C@H]1CC[C@H](N(C)CCOC)CC1 [EPZ011989, N-((4,6-Dimethyl-2-oxo-1,2-dihydropyridin-3-yl)methyl)-3-(ethyl((trans)-4-((2-methoxyethyl)(methyl)amino)cyclohexyl)amino)-2-methyl-5-(3-morpholinoprop-1-yn-1-yl)benzamide]
percent hepatic extraction (%Eh) [1]: 29% | percent hepatic extraction (%Eh) [2]: < 14% | percent hepatic extraction (%Eh) [3]: < 11% | fraction unbound [4]: 0.97 ± 0.03 | fraction unbound [5]: 0.91 ± 0.06 | fraction unbound [6]: 0.8 ± 0.11 | predicted efficacious plasma exposure (WSU-DLCL2 cells [7]): 214 nM and 130 ng/mL | coverage over the LCC (time) ([8]; single oral dose 250 mg/kg): approximately 8 h | coverage over the LCC (time) ([8]; single oral dose 500 mg/kg): approximately 8 h | dose that achieves complete coverage over the predicted efficacious plasma level ([9]; 7-day BID study): 500 mg/kg BID | tolerability ([9]; 125, 250, 500, 750 and 1000 mg/kg BID, 7 days): well tolerated | H3K27 methyl mark in bone marrow [10]: complete ablation of the methyl mark | time above LCC ([11]; 30 mg/kg): 4 h | time above LCC ([11]; 100 mg/kg): 8 h | AUC(0-inf) ([11]; 30 mg/kg): 970 ng·h/mL | Cmax ([11]; 30 mg/kg): 240 ng/mL | Tmax ([11]; 30 mg/kg): 2 h | AUC(0-inf) ([11]; 100 mg/kg): 5600 ng·h/mL | Cmax ([11]; 100 mg/kg): 1600 ng/mL | Tmax ([11]; 100 mg/kg): 2.7 h | AUC(0-inf) ([11]; 300 mg/kg): 10000 ng·h/mL | Cmax ([11]; 300 mg/kg): 2900 ng/mL | Tmax ([11]; 300 mg/kg): 2.7 h | effect on mean body weights [12]: nominal effect on mean body weights | antitumor activity ([12]; D-tartrate salt, SCID mice): significant tumor regression at both doses; also recorded: Robust tumor growth inhibition | H3K27 methyl mark in tumor samples [13]: robust H3K27 methyl mark reduction | time over the predicted efficacious plasma levels [14]: ≥ 6 h | LCC (lowest cytotoxic concentration), 11d proliferation WSU-DLCL2 (WSU-DLCL2 cells [15]): 208 nM and 208 ± 75 (n = 4) nM | IC50 [16]: 94 ± 48 nM
